Data taken from the NIST ThermoML archive (doi:10.1016/j.jct.2018.11.004).

Key:
[1] = Molar enthalpy of transition or fusion
[2] = molar heat capacity at constant pressure

CC(C)[C@@H]1CC[C@@H](C)C[C@H]1O [L-menthol]
[1]
Conditions	Molar enthalpy of transition or fusion [kcal/mol]
Crystal 1, Adiabatic calorimetry	3.22
Crystal 1, DSC	3.18

Conditions	Molar enthalpy of transition or fusion [kcal/mol]
[1], Metastable crystal, DSC	2.72

[2]
Conditions	molar heat capacity at constant pressure [J/K/mol]
5 K, 101.33 kPa, Crystal 1, Small (less than 1 g) adiabatic calorimetry	0.858
10 K, 101.33 kPa, Crystal 1, Small (less than 1 g) adiabatic calorimetry	5.528
15 K, 101.33 kPa, Crystal 1, Small (less than 1 g) adiabatic calorimetry	12.7
20 K, 101.33 kPa, Crystal 1, Small (less than 1 g) adiabatic calorimetry	20.26
25 K, 101.33 kPa, Crystal 1, Small (less than 1 g) adiabatic calorimetry	27.36
30 K, 101.33 kPa, Crystal 1, Small (less than 1 g) adiabatic calorimetry	33.65
35 K, 101.33 kPa, Crystal 1, Small (less than 1 g) adiabatic calorimetry	39.12
40 K, 101.33 kPa, Crystal 1, Small (less than 1 g) adiabatic calorimetry	44.06
45 K, 101.33 kPa, Crystal 1, Small (less than 1 g) adiabatic calorimetry	48.69
50 K, 101.33 kPa, Crystal 1, Small (less than 1 g) adiabatic calorimetry	53.14
55 K, 101.33 kPa, Crystal 1, Small (less than 1 g) adiabatic calorimetry	57.47
60 K, 101.33 kPa, Crystal 1, Small (less than 1 g) adiabatic calorimetry	61.81
65 K, 101.33 kPa, Crystal 1, Small (less than 1 g) adiabatic calorimetry	66.15
70 K, 101.33 kPa, Crystal 1, Small (less than 1 g) adiabatic calorimetry	70.48
75 K, 101.33 kPa, Crystal 1, Small (less than 1 g) adiabatic calorimetry	74.81
80 K, 101.33 kPa, Crystal 1, Small (less than 1 g) adiabatic calorimetry	79.11
85 K, 101.33 kPa, Crystal 1, Small (less than 1 g) adiabatic calorimetry	83.38
90 K, 101.33 kPa, Crystal 1, Small (less than 1 g) adiabatic calorimetry	87.62
95 K, 101.33 kPa, Crystal 1, Small (less than 1 g) adiabatic calorimetry	91.81
100 K, 101.33 kPa, Crystal 1, Small (less than 1 g) adiabatic calorimetry	95.95
105 K, 101.33 kPa, Crystal 1, Small (less than 1 g) adiabatic calorimetry	100
110 K, 101.33 kPa, Crystal 1, Small (less than 1 g) adiabatic calorimetry	104
115 K, 101.33 kPa, Crystal 1, Small (less than 1 g) adiabatic calorimetry	108
120 K, 101.33 kPa, Crystal 1, Small (less than 1 g) adiabatic calorimetry	111.8
125 K, 101.33 kPa, Crystal 1, Small (less than 1 g) adiabatic calorimetry	115.7
130 K, 101.33 kPa, Crystal 1, Small (less than 1 g) adiabatic calorimetry	119.4
135 K, 101.33 kPa, Crystal 1, Small (less than 1 g) adiabatic calorimetry	123.1
140 K, 101.33 kPa, Crystal 1, Small (less than 1 g) adiabatic calorimetry	126.8
145 K, 101.33 kPa, Crystal 1, Small (less than 1 g) adiabatic calorimetry	130.4
150 K, 101.33 kPa, Crystal 1, Small (less than 1 g) adiabatic calorimetry	134
155 K, 101.33 kPa, Crystal 1, Small (less than 1 g) adiabatic calorimetry	137.5
160 K, 101.33 kPa, Crystal 1, Small (less than 1 g) adiabatic calorimetry	141.1
165 K, 101.33 kPa, Crystal 1, Small (less than 1 g) adiabatic calorimetry	144.6
170 K, 101.33 kPa, Crystal 1, Small (less than 1 g) adiabatic calorimetry	148.1
175 K, 101.33 kPa, Crystal 1, Small (less than 1 g) adiabatic calorimetry	151.6
180 K, 101.33 kPa, Crystal 1, Small (less than 1 g) adiabatic calorimetry	155.1
185 K, 101.33 kPa, Crystal 1, Small (less than 1 g) adiabatic calorimetry	158.6
190 K, 101.33 kPa, Crystal 1, Small (less than 1 g) adiabatic calorimetry	162.2
195 K, 101.33 kPa, Crystal 1, Small (less than 1 g) adiabatic calorimetry	165.7
200 K, 101.33 kPa, Crystal 1, Small (less than 1 g) adiabatic calorimetry	169.3
205 K, 101.33 kPa, Crystal 1, Small (less than 1 g) adiabatic calorimetry	172.8
210 K, 101.33 kPa, Crystal 1, Small (less than 1 g) adiabatic calorimetry	176.4
215 K, 101.33 kPa, Crystal 1, Small (less than 1 g) adiabatic calorimetry	180
220 K, 101.33 kPa, Crystal 1, Small (less than 1 g) adiabatic calorimetry	183.7
225 K, 101.33 kPa, Crystal 1, Small (less than 1 g) adiabatic calorimetry	187.4
230 K, 101.33 kPa, Crystal 1, Small (less than 1 g) adiabatic calorimetry	191.1
235 K, 101.33 kPa, Crystal 1, Small (less than 1 g) adiabatic calorimetry	194.9
240 K, 101.33 kPa, Crystal 1, Small (less than 1 g) adiabatic calorimetry	198.7
245 K, 101.33 kPa, Crystal 1, Small (less than 1 g) adiabatic calorimetry	202.5
250 K, 101.33 kPa, Crystal 1, Small (less than 1 g) adiabatic calorimetry	206.5
255 K, 101.33 kPa, Crystal 1, Small (less than 1 g) adiabatic calorimetry	210.7
260 K, 101.33 kPa, Crystal 1, Small (less than 1 g) adiabatic calorimetry	215.1
265 K, 101.33 kPa, Crystal 1, Small (less than 1 g) adiabatic calorimetry	219.5
265.2 K, 100 kPa, Crystal 1, Extra sensitive DSC	221.5
270 K, 100 kPa, Crystal 1, Extra sensitive DSC	225.6
270 K, 101.33 kPa, Crystal 1, Small (less than 1 g) adiabatic calorimetry	223.9
275 K, 100 kPa, Crystal 1, Extra sensitive DSC	230
275 K, 101.33 kPa, Crystal 1, Small (less than 1 g) adiabatic calorimetry	228.2
280 K, 100 kPa, Crystal 1, Extra sensitive DSC	235.1
280 K, 101.33 kPa, Crystal 1, Small (less than 1 g) adiabatic calorimetry	232.4
285 K, 100 kPa, Crystal 1, Extra sensitive DSC	240.5
285 K, 101.33 kPa, Crystal 1, Small (less than 1 g) adiabatic calorimetry	236.7
290 K, 100 kPa, Crystal 1, Extra sensitive DSC	246.3
290 K, 101.33 kPa, Crystal 1, Small (less than 1 g) adiabatic calorimetry	241.5
295 K, 100 kPa, Crystal 1, Extra sensitive DSC	253.1
295 K, 101.33 kPa, Crystal 1, Small (less than 1 g) adiabatic calorimetry	246.7
298.15 K, 101.33 kPa, Crystal 1, Small (less than 1 g) adiabatic calorimetry	250.1
300 K, 101.33 kPa, Crystal 1, Small (less than 1 g) adiabatic calorimetry	252.3
305 K, 101.33 kPa, Crystal 1, Small (less than 1 g) adiabatic calorimetry	258.3
310 K, 101.33 kPa, Crystal 1, Small (less than 1 g) adiabatic calorimetry	264.6
315 K, 101.33 kPa, Crystal 1, Small (less than 1 g) adiabatic calorimetry	271.4
315.6 K, 101.33 kPa, Crystal 1, Small (less than 1 g) adiabatic calorimetry	272.3

[2], Liquid
Conditions	molar heat capacity at constant pressure [J/K/mol]
315.6 K, 101.33 kPa, Small (less than 1 g) adiabatic calorimetry	376.1
320 K, 101.33 kPa, Small (less than 1 g) adiabatic calorimetry	383.1
325 K, 101.33 kPa, Small (less than 1 g) adiabatic calorimetry	390.8
325.9 K, 100 kPa, Extra sensitive DSC	395.1
330 K, 100 kPa, Extra sensitive DSC	401.1
330 K, 101.33 kPa, Small (less than 1 g) adiabatic calorimetry	398.1
335 K, 100 kPa, Extra sensitive DSC	408
335 K, 101.33 kPa, Small (less than 1 g) adiabatic calorimetry	404.9
340 K, 100 kPa, Extra sensitive DSC	414.3
340 K, 101.33 kPa, Small (less than 1 g) adiabatic calorimetry	411.3
345 K, 100 kPa, Extra sensitive DSC	420.5
345 K, 101.33 kPa, Small (less than 1 g) adiabatic calorimetry	417.1
350 K, 100 kPa, Extra sensitive DSC	426.2
350 K, 101.33 kPa, Small (less than 1 g) adiabatic calorimetry	422.3
355 K, 100 kPa, Extra sensitive DSC	430.8
355 K, 101.33 kPa, Small (less than 1 g) adiabatic calorimetry	427
360 K, 101.33 kPa, Small (less than 1 g) adiabatic calorimetry	431
365 K, 101.33 kPa, Small (less than 1 g) adiabatic calorimetry	434.3
370 K, 101.33 kPa, Small (less than 1 g) adiabatic calorimetry	437
